Read-outs that look alike come from different tables or passages of the source.
What was measured:
human NLRP3 [1] = target: T1, human NLRP3 (Homo sapiens (Human), UniProt Q96P20); assay: Scintillation Proximity (SPA) NLRP3 Assay: displacement of 3H-MCC950; format: binding; settings: for IC50: read-out: SPA IC50
human NLRP3 [2] = target: T1, human NLRP3; assay: Human PBMC NLRP3 Assay (LPS priming, ATP stimulation, cytokine measurement); format: cell-based
human NLRP3 [3] = target: T1, human NLRP3; assay: Human Whole Blood (hWB) NLRP3 Assay (LPS/ATP, IL-1β); format: cell-based
mouse NLRP3 = mouse NLRP3 (Mus musculus (Mouse), UniProt Q8R4B8); assay: Mouse Whole Blood (mWB) NLRP3 Assay (LPS/ATP, IL-1b); format: cell-based
mouse NLRP3, sequence (Q8R4B8 whole entry): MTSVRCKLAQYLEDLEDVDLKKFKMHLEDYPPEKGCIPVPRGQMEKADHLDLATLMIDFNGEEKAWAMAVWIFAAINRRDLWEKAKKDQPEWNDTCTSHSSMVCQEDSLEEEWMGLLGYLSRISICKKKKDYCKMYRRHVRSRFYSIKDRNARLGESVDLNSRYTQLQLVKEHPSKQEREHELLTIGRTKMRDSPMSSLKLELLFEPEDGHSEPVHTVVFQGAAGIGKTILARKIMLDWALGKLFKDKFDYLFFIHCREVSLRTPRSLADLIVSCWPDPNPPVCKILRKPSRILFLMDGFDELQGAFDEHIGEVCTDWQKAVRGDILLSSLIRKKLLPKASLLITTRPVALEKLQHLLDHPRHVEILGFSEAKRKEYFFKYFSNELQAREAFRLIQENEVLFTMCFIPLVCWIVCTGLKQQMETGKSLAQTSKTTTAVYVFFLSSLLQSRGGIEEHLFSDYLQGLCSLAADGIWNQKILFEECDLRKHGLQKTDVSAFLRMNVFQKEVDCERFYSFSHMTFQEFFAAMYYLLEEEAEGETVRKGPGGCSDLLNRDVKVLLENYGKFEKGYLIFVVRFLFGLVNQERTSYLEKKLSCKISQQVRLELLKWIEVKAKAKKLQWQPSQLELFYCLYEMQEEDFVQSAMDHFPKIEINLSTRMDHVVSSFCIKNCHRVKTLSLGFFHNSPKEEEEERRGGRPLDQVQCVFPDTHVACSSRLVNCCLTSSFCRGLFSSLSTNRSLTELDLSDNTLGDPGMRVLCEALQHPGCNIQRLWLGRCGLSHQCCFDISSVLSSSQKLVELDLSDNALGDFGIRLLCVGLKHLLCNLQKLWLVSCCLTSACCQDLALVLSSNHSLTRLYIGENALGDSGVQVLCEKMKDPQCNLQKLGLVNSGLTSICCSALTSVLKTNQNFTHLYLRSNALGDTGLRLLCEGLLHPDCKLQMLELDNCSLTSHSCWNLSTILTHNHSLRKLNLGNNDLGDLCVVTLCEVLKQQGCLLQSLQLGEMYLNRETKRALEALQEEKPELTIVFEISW
Method: Reagents: The following reagents were used: blood collection tubes (Heparin); U-bottom 96-well tissue culture (Falcon 353077); HBSS for LPS, ATP and compound dilutions (Gibco 24020-117); and LPS, E. coli serotype 026:B6 (Sigma L-2654).
Mouse IL-1b MSD assay: Blood was drawn from female CD1 mice (9 to 10 weeks) by cardiac puncture. Blood was plated (135 μL) per well in 96-well U-bottom plates. 7.5 μL of 20×LPS (20 μg/mL, final concentration of 1 μg/mL) was added and mixed by gentle pipetting, and the mixture was incubated in a TC incubator for five hours. 7.5 μL of 20× compound or vehicle per well was added and mixed by gentle pipetting. Compounds were diluted 1/50 in HBSS to prepare a 20× dilution curve in […].
The mixture was incubated for 30 minutes in a TC incubator with shaking (450 rpm). 5 μl of 31×ATP (155 mM, final concentration of 5 mM) was added and mixed by gentle pipetting. The mixture was incubated in a TC incubator for 30 minutes with shaking (450 rpm). The plate was centrifuged for 10 minutes at 800×g and −70 μL of plasma was removed. Plasma was frozen if required. Mouse IL-1b was analyzed with IL-1b MSD assay (K152TUK).
Compounds were added 30 minutes before priming the cells with LPS when TNFα was required to be quantified in the cytokine panel to confirm selectivity.

[4] = human PBMC, LPS priming, ATP stimulation, read-out: PBMC IC50
[5] = human whole blood, LPS/ATP, IL-1β, read-out: hWB IC50
[6] = mouse whole blood, LPS/ATP, IL-1b
[7] = PBMC IC50, human PBMC, LPS priming, ATP stimulation
[8] = hWB IC50, human whole blood, LPS/ATP, IL-1β
[9] = relative to Comparative Example A*

T1 sequence (Q96P20 whole entry): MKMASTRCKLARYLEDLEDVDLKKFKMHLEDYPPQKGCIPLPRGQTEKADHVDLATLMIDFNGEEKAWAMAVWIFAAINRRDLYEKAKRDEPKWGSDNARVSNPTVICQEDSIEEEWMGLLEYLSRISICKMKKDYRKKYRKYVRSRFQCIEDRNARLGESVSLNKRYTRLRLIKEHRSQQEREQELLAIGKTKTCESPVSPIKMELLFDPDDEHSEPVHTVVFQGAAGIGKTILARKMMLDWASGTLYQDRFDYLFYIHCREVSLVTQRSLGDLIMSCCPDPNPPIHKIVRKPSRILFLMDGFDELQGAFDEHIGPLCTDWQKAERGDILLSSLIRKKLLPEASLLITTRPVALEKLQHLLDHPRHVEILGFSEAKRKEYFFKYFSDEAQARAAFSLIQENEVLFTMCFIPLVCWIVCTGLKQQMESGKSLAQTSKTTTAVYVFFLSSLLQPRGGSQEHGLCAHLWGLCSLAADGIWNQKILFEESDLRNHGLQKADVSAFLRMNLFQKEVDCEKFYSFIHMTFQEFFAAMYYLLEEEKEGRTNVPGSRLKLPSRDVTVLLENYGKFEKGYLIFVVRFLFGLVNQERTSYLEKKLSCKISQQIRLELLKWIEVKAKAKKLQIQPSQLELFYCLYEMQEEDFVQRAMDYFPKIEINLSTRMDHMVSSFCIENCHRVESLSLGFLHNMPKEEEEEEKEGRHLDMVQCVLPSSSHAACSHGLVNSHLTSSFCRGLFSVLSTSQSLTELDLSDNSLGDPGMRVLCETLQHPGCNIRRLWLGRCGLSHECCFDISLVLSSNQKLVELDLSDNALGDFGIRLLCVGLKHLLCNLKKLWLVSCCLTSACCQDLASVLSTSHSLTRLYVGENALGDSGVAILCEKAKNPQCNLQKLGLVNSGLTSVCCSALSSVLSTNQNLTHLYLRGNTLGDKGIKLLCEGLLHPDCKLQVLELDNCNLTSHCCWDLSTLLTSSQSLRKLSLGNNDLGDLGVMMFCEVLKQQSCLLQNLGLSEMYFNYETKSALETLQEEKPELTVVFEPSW

Row | Structure (SMILES) | IC50 (human NLRP3 [1]; displacement of 3H-MCC950) | IC50 (human NLRP3 [1]) | IC50 (human NLRP3 [2]; [4]) | IC50 (human NLRP3 [2]; read-out: PBMC IC50) | IC50 (human NLRP3 [3]; [5]) | IC50 (human NLRP3 [3]; read-out: hWB IC50) | IC50 (mouse NLRP3) | IC50 (mouse NLRP3; [6]) | IC50 (human NLRP3 [2]; [7]) | IC50 (human NLRP3 [3]; [8]) | other results
1 | O=C(N[C@@H]1CCCCN(c2nnn[nH]2)C1)C1(c2ccc(Cl)cc2)CC1 [Compound 51A, 1-(4-chlorophenyl)-N-[(3R)-1-(1H-tetrazol-5-yl)azepan-3-yl]cyclopropanecarboxamide] | 1 to 10 µM | 2.2 µM | 0.01 to 0.1 µM | 0.044 µM | < 1 µM | 0.72 µM | 1.8 µM | 1 to 2 µM |  |  | fold increase in binding activity (SPA IC50) (human NLRP3 [1]; relative to Compound 10A): > 4 fold; fold increase in potency as measured by PBMC IC50 (human NLRP3 [2]; relative to Compound 10A): 48 fold; fold increase in potency as measured by hWB IC50 (human NLRP3 [3]; relative to Compound 10A): > 10 fold
2 | O=C(N[C@@H]1CC[C@H]2CC[C@@H]1N2c1nnn[nH]1)C1(c2ccc(C(F)(F)F)cc2O)CC1 (single isomer, unassigned) [34C*] | < 1 µM |  |  |  |  |  |  | < 1 µM | 0.01 to 0.1 µM | < 1 µM | 
3 | C[C@@H]1CCN(c2nnn[nH]2)C[C@H](NC(=O)C2(c3ccc(Cl)cc3)CC2)C1 (single isomer, unassigned) [12A*, 1-(4-chlorophenyl)-N-(5-methyl-1-(1H-tetrazol-5-yl)azepan-3-yl)cyclopropane-1-carboxamide] | < 1 µM |  | < 0.01 µM |  | < 1 µM |  |  | < 1 µM |  |  | 
4 | C[C@H]1C[C@@H](NC(=O)C2(c3ccc(Cl)cc3O)CC2)CN(c2nnn[nH]2)C1 [Compound 47A, 1-(4-chloro-2-hydroxyphenyl)-N-((3R,5S)-5-methyl-1-(1H-tetrazol-5-yl)piperidin-3-yl)cyclopropane-1-carboxamide] | < 1 µM | 0.048 µM | < 0.01 µM | 0.0067 µM | < 1 µM | 0.22 µM | 0.035 µM | < 1 µM |  |  | fold increase in binding activity (SPA IC50) (human NLRP3 [1]; relative to Compound 46A): 18 fold; fold increase in potency as measured by PBMC IC50 (human NLRP3 [2]; relative to Compound 46A): 15 fold; fold increase in potency as measured by hWB IC50 (human NLRP3 [3]; relative to Compound 46A): > 11 fold; fold increase in potency as measured by mWB IC50 (mouse NLRP3; relative to Compound 46A): 4.9 fold
5 | C[C@@H]1C[C@@H](NC(=O)C2(c3ccc(OC(F)F)cc3)CC2)[C@H]2CC[C@@H]1N2c1nnn[nH]1 (single isomer, unassigned) [35A*] | < 1 µM |  |  |  |  |  |  | < 1 µM | < 0.01 µM | < 1 µM | 
6 | C[C@H]1CCN(c2nnn[nH]2)C[C@@H]1NC(=O)C1(c2ccc(Cl)cc2)CC1 [Compound 49C, 1-(4-chlorophenyl)-N-[(3R,4S)-4-methyl-1-(1H-tetrazol-5-yl)-3-piperidyl]cyclopropanecarboxamide] | 1 to 10 µM |  | 0.1 to 0.5 µM |  | 2 to 3 µM |  |  | 2 to 3 µM |  |  | 
7 | O=C(N[C@@H]1CCCN(c2nnn[nH]2)C1)C1(c2ccc(Cl)cc2)CC1 [Compound 10A, (R)-N-(1-(1H-tetrazol-5-yl)piperidin-3-yl)-1-(4-chlorophenyl)cyclopropane-1-carboxamide] | 1 to 10 µM | 9.5 µM | > 0.5 µM | 2.1 µM | > 3 µM | 7.3 µM | 1.9 µM | 1 to 2 µM |  |  | fold increase in binding activity (SPA IC50) (human NLRP3 [1]; [9]): > 40 fold; fold increase in potency as measured by PBMC IC50 (human NLRP3 [2]; relative to Comparative Example F): 4 fold; fold increase in potency as measured by PBMC IC50 (human NLRP3 [2]; relative to Comparative Example G): > 47 fold; fold increase in potency as measured by PBMC IC50 (human NLRP3 [2]; relative to Comparative Example H): 5 fold; fold increase in potency as measured by PBMC IC50 (human NLRP3 [2]; relative to Comparative Example J1): > 47 fold; fold increase in potency as measured by PBMC IC50 (human NLRP3 [2]; relative to Comparative Example J2): > 47 fold; fold increase in potency as measured by hWB IC50 (human NLRP3 [3]; [9]): > 6 fold; fold increase in potency as measured by mWB IC50 (mouse NLRP3; relative to Comparative Example B1): 26 fold
8 | C[C@@H]1C[C@@H](NC(=O)C2(c3ccc(C(F)(F)F)cc3)CC2)[C@H]2CC[C@@H]1N2c1nnn[nH]1 [79A*, N-((1R,2R,4R,5S)-4-methyl-8-(1H-tetrazol-5-yl)-8-azabicyclo[3.2.1]octan-2-yl)-1-(4-(trifluoromethyl)phenyl)cyclopropane-1-carboxamide] | < 1 µM |  |  |  |  |  |  | < 1 µM | < 0.01 µM | < 1 µM | 
9 | C[C@H]1C[C@@H](NC(=O)C2(c3ccc(Cl)cc3)CC2)CN(c2nnn[nH]2)C1 [Compound 46A, 1-(4-chlorophenyl)-N-((3R,5S)-5-methyl-1-(1H-tetrazol-5-yl)piperidin-3-yl)cyclopropane-1-carboxamide] | < 1 µM | 0.86 µM | 0.01 to 0.1 µM | 0.1 µM | 2 to 3 µM | 2.5 µM | 0.17 µM | < 1 µM |  |  | fold increase in binding activity (SPA IC50) (human NLRP3 [1]; relative to Compound 10A): 11 fold; fold increase in potency as measured by PBMC IC50 (human NLRP3 [2]; relative to Compound 10A): 21 fold; fold increase in potency as measured by hWB IC50 (human NLRP3 [3]; relative to Compound 10A): 3 fold; fold increase in potency as measured by mWB IC50 (mouse NLRP3; relative to Compound 10A): 11 fold

Source: US20260007684A1, “AMIDE DERIVATIVES FOR INHIBITING NLRP3 AND USES THEREOF” (Ventus Therapeutics U.S., Inc., priority 2023, published 2026)
